In ChEMBL document CHEMBL4483862, “Open-source discovery of chemical leads for next-generation chemoprotective antimalarials” (2018):

System: Plasmodium berghei
Experiment: Luciferase/luciferin-expressing antifolate-resistant parasites were used to infect a culture of HepG2 cells that were pre-incubated with compounds. Infected hepatocytes emit light due to the luciferase reaction. Assay results are presented as the percent inhibition of light emission compared to control. […]
Assay type: functional
Conditions: sporozoite; for IC90: read-out: LUCIFERASE INFECTION ASSAY - IC90
[1] = read-out: LUCIFERASE INFECTION ASSAY - IC50

Row | SMILES | IC90 | IC50 [1] | further results
1 | O=C(NCc1ccc(Cl)cc1Cl)/C(=C/c1cccs1)n1nnnc1-c1ccccc1 | > 10 µM |  | IC50 (PBLUC_HILL_SLOPE 1.46, PBLUC_R_SQUARED 0.613, read-out: LUCIFERASE INFECTION ASSAY - IC50): 4.83 µM
2 | COc1ccc(C2NC(=O)NC(c3ccccc3)=C2c2nc3ccccc3s2)cc1OCc1ccccc1 (stereo not drawn) | > 10 µM | 9.63 µM | 
3 | COc1ccc(-c2nc(NC(=O)CCc3ccc4c(c3)OCO4)sc2C)cc1 | > 10 µM |  | IC50 (PBLUC_HILL_SLOPE 15.2, PBLUC_R_SQUARED 0.468, read-out: LUCIFERASE INFECTION ASSAY - IC50): 8.95 µM
4 | COC(=O)c1cnc(NC(=O)/C=C/c2ccc([N+](=O)[O-])o2)s1 | > 10 µM |  | IC50 (HEPG2TOX_HILL_SLOPE 3.5, HEPG2TOX_R_SQUARED 0.48, read-out: LUCIFERASE INFECTION ASSAY - IC50): > 10 µM
5 | CSc1nc(=O)nc(-c2ccc(Cl)cc2)[nH]1 | > 13 µM | > 13 µM | 
6 | CCOC(=O)c1[nH]c(C)c(C(=O)/C=C/c2c(C)nn(-c3ccc(F)cc3)c2Cl)c1C | 0.643 µM |  | IC50 (HEPG2TOX_HILL_SLOPE 1.33, HEPG2TOX_R_SQUARED 0.905, PBLUC_HILL_SLOPE 0.748, PBLUC_R_SQUARED 0.781, read-out: LUCIFERASE INFECTION ASSAY - IC50): 0.0341 µM
7 | O=C(c1ccccc1)c1ccc(OCC(O)CNC2CCCCCCC2)cc1 (stereo not drawn) | > 10 µM |  | IC50 (PBLUC_HILL_SLOPE 1.94, PBLUC_R_SQUARED 0.684, read-out: LUCIFERASE INFECTION ASSAY - IC50): 6.28 µM
8 | O=C(Cn1ncc(Cl)c(Cl)c1=O)N1CCc2ccccc21 | > 10 µM |  | IC50 (HEPG2TOX_HILL_SLOPE 5.62, HEPG2TOX_R_SQUARED 0.657, PBLUC_HILL_SLOPE 20.9, PBLUC_R_SQUARED 0.129, read-out: LUCIFERASE INFECTION ASSAY - IC50): 9.19 µM
9 | CN(CCC#N)C(=S)NCCc1ccccc1 | > 10 µM | > 10 µM | 
10 | Cn1c(NCc2ccccc2)nc2cnc(-c3ccc4ccccc4c3)cc21 | 9.43 µM |  | IC50 (HEPG2TOX_HILL_SLOPE 9.86, HEPG2TOX_R_SQUARED 0.539, PBLUC_HILL_SLOPE 12.2, PBLUC_R_SQUARED 0.511, read-out: LUCIFERASE INFECTION ASSAY - IC50): 7.88 µM
11 | O=C(CCSc1n[nH]c(=O)n1C1CC1)Nc1ccccc1 | > 10 µM | > 10 µM | 
12 | COc1ccc(-n2c(=O)c3ccccc3n3c(SCC(N)=O)nnc23)cc1 | > 10 µM | > 10 µM | 
13 | CC/C=C1/CC(=O)N(c2ccccc2)C1=O | 14.2 µM |  | IC50 (PBLUC_HILL_SLOPE 3.2, PBLUC_R_SQUARED 0.213, read-out: LUCIFERASE INFECTION ASSAY - IC50): 7.15 µM
14 | O=C(NNC(=S)NC(=O)c1cn(-c2ccccc2)nc1-c1ccc(Br)cc1)c1ccncc1 | 3.48 µM |  | IC50 (HEPG2TOX_HILL_SLOPE 6.43, HEPG2TOX_R_SQUARED 0.426, PBLUC_HILL_SLOPE 13.5, PBLUC_R_SQUARED 0.624, read-out: LUCIFERASE INFECTION ASSAY - IC50): 2.96 µM
15 | CC(=O)c1cccc(-c2cnc3ccc(-c4cccc(C(=O)NCCO)c4)nn23)c1 | 2.32 µM |  | IC50 (HEPG2TOX_HILL_SLOPE 1.87, HEPG2TOX_R_SQUARED 0.674, PBLUC_HILL_SLOPE 4.19, PBLUC_R_SQUARED 0.651, read-out: LUCIFERASE INFECTION ASSAY - IC50): 1.38 µM
16 | O=C(Nc1nnc(C(F)(F)F)[nH]1)c1cc(-c2ccc(Br)cc2)nc2ccccc12 | > 10 µM |  | IC50 (HEPG2TOX_HILL_SLOPE 7.84, HEPG2TOX_R_SQUARED 0.569, PBLUC_HILL_SLOPE 1.54, PBLUC_R_SQUARED 0.197, read-out: LUCIFERASE INFECTION ASSAY - IC50): 9.57 µM
17 | Clc1ccc2c(N(Cc3ccco3)Cc3cccs3)ncnc2c1 | > 10 µM | > 10 µM | 
18 | CC(=O)Nc1ccc(C(=S)NCCCN2CCCC2=O)cc1 | > 10 µM | > 10 µM | 
19 | CCC(C)c1ccc(NC(=O)Cc2ccc(NS(=O)(=O)c3ccc(Cl)c(Cl)c3)cc2)cc1 (stereo not drawn) | > 10 µM |  | IC50 (PBLUC_HILL_SLOPE 11.4, PBLUC_R_SQUARED 0.218, read-out: LUCIFERASE INFECTION ASSAY - IC50): 9.54 µM
20 | CN(C)c1cccc(-c2cnc3cnc(-c4cnn(Cc5ccccc5)c4)cn23)c1 | > 8.37 µM | > 8.37 µM | 
21 | FC(F)(F)c1ccc(/C=N/Nc2c(Cl)cc(C(F)(F)F)cc2Cl)cc1 | > 8.23 µM | > 8.23 µM | 
22 | CCOC(=O)c1ccc(-n2c(C)cc(/C=C(\C#N)c3nc4ccccc4[nH]3)c2C)cc1 | > 10 µM | > 10 µM | 
23 | Cc1nn(S(=O)(=O)c2ccc(-c3ccccn3)s2)c(C)c1Br | > 8.29 µM | > 8.29 µM | 
24 | O=C(c1nn(-c2ccccc2)c(=O)c2ccccc12)N1CCN(C2CCS(=O)(=O)C2)CC1 (stereo not drawn) | > 10 µM | > 10 µM | 
